Experiment [1] concerns the target T1, TrCel3B (Trichoderma reesei, UniProt G0RJ07).
T1 construct: gene cel3b; gene 2622 bp, 96 kDa
T1 sequence (G0RJ07 19-874): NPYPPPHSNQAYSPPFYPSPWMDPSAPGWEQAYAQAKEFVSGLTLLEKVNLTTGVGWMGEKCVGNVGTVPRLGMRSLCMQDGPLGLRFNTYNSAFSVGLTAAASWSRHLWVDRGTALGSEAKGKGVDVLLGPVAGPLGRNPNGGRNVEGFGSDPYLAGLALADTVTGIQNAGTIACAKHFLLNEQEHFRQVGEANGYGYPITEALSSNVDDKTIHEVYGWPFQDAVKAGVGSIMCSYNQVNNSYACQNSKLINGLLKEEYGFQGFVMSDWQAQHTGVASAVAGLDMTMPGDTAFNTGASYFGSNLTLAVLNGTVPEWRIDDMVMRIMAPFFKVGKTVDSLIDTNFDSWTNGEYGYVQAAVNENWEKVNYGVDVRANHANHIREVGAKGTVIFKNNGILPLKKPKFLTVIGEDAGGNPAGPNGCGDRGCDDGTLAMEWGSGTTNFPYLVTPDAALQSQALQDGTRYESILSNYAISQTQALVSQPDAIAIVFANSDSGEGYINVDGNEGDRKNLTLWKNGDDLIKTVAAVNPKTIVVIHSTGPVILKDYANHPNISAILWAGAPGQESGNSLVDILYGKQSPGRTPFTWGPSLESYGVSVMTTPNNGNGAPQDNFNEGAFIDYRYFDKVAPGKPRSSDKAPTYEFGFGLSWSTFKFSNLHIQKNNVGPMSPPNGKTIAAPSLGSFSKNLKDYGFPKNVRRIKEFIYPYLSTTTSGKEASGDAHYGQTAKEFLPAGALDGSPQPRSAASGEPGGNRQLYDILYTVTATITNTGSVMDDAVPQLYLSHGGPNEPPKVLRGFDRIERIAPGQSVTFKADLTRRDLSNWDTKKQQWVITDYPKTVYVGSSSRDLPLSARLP
The experiment in a line: pNP release at […] nm. To be noted: pH 5.5, 50 °C (methods; figure legend 60 °C), 30 min. In kind it is biochemical.

Experiment [2] addresses T1, TrCel3B. The experiment is described as follows: pNPG hydrolysis, pNP release at […] nm. Type of experiment: biochemical. Conditions: pNPG substrate (5 mM stock), pH 4.5, 60 °C.

From PMC11205114, “A Multiomics Perspective on Plant Cell Wall-Degrading Enzyme Production: Insights from the Unexploited Fungus Trichoderma erinaceum” (Journal of Fungi, 2024) come the findings set out here.

Take `O=[N+]([O-])c1ccc(O[C@@H]2O[C@H](CO)[C@@H](O)[C@H](O)[C@H]2O)cc1` [4-nitrophenyl β-D-glucopyranoside]: the “pNP release at 405 nm” value on TrCel3B [1] is “TeBgl3C and TrCel3B displayed the highest specific activities on pNPG”.

For the compound `OC[C@H]1OC(O)[C@H](O)[C@@H](O)[C@@H]1O` (some centres unmarked) [glucose], the “% inhibition” value at TrCel3B [2] was “TeBgl3C showed a slightly higher tolerance to glucose than TrCel3B”.
